Tested on: SC82 cells
Assay: Bialaphos selection of SC82 suspension culture cells on filters
Type: cell-based, Zea mays
Method: The suspension culture (designated SC82) used in the initial experiments (see Example 8) was derived from embryogenic Type-II callus of A188×B73. Following bombardment (see Example 8), cells on filters were resuspended in nonselective liquid medium, cultured for 1 to 2 weeks and transferred to filters overlaying solid medium containing 1 or 3 mg/l bialaphos. The degree of inhibition of tissue growth during selection was dependent upon the density of the cells on the filter and on the concentration of bialaphos used.
Using either selection protocol (1 or 3 mg/l bialaphos), resistant cell colonies emerged on the selection plates of SC82 bombarded with pDPG165 approximately 6 to 7 weeks after bombardment (FIG. 2A). Bialaphos-resistant calli were maintained and expanded on selection medium. Much of this tissue was embryogenic (FIG. 2B). […] These were controls which confirm the prediction that cells without the bar gene are not resistant to bialaphos.

C[C@H](NC(=O)[C@H](C)NC(=O)[C@@H](N)CCP(C)(=O)O)C(=O)O [bialaphos]
growth of cells cultured on bialaphos (SC82 cells, 0.5 PCV/filter, 1 mg/l bialaphos): 30-50 % of nonselected growth
growth of cells on the original selection filter (SC82 cells, 0.5 PCV/filter, 3 mg/l bialaphos): ~10 % of nonselected growth
colony growth on selection plates (cells from untransformed suspension cultures, 1 or 3 mg/l bialaphos): No colony growth

Reference: patent US6803499B1, “Methods and compositions for the production of stably transformed, fertile monocot plants and cells thereof” (DeKalb Genetics Corporation, priority 1989, dated 2004)
